In paper PMC524486, “Branched-chain amino acid aminotransferase and methionine formation in Mycobacterium tuberculosis” (BMC Microbiology, 2004):
Values after ≈ are worked out from the molar mass of the structure shown. Read-outs that look alike come from different tables or passages of the source.

Experiments:
[1] = test system: M. tuberculosis branched-chain aminotransferase; format: biochemical, Mycobacterium tuberculosis H37Rv; settings: for amino donor activity for Met formation from KMTB: 2 mM individual amino acid, 1 mM KMTB, 30 min at 37°C (Figure 5); for Km: read-out: Apparent Km
M. tuberculosis [2] = assay: In vitro growth inhibition, microtitre doubling dilution, A650 nm; format: cell-based, M. tuberculosis H37Rv
M. tuberculosis BCAT = M. tuberculosis BCAT (Mycobacterium tuberculosis, UniProt P9WQ75); assay: Inhibition of BCAT-catalysed Met formation by aminooxy compounds; format: biochemical, Mycobacterium tuberculosis H37Rv; settings: for inhibition of Met formation, ranking at 0.1 mM / inhibition of Met formation: 2.0 mM leucine; for inhibition of Met formation, ranking at 0.1 mM: 0.1 mM inhibitor (Figure 6); for type of inhibition: fit to competitive, uncompetitive and mixed inhibition equations; for inhibition of Met formation: 0.1 or 1.0 mM inhibitor (Figure 6)
M. tuberculosis BCAT, sequence (P9WQ75 whole entry, looked up): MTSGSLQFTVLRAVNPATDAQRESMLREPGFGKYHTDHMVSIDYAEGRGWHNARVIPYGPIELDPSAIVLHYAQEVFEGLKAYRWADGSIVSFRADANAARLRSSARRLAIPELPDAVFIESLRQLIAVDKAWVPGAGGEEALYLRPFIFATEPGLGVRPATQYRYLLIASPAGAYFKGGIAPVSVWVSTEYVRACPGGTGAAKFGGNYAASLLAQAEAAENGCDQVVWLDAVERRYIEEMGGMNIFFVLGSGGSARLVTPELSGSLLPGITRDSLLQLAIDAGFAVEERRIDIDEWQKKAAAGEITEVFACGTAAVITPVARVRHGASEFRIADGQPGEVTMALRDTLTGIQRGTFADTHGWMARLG
Procedure: Aminotransferase activities were assayed by an HPLC method. 5 or 10 μl of recombinant enzyme was added to 100 μl of substrate mix (100 mM PO4 (pH 7.4)/50 μM PLP/various concentrations of amino acid/various concentrations of keto acid) and incubated for 30 min at 37°C. The samples were then stored at -20°C until analysis by HPLC. All samples were analysed by pre-column derivatisation and reverse-phase HPLC. 10 μl of sample was mixed with 50 μl of 400 mM borate pH 10.5 and then with 10 μl of 10 mg/ml o-phthalaldehyde/12 μl/ml mercaptopropionate/400 mM borate pH 10.5 prior to the injection of 7.0 μl onto a 2.1 × 200 mm ODS-AA column (Agilent; Mississauga, ON, Canada). The column was eluted using 2.72 mg/ml sodium acetate pH 7.2/0.018% v/v triethylamine/0.3% v/v tetrahydrofuran as Buffer A and 2.72 mg/ml sodium acetate pH 7.2/40% v/v methanol/40% v/v acetonitrile as Buffer B with a linear gradient of 0 – 17% B over 16 min followed by a linear gradient of 17–100% B over 1 min and 6.0 min at 100% B. The flow rate was 0.45 ml/min from 0 – 16 min and 0.80 ml/min from 17–30 min. The elution of derivatised amino acids was monitored at 338 nm and fluorometrically with an excitation of 338 nm and an emission of 450 nm. All separations were performed on an Agilent 1100 HPLC equipped with an autosampler, variable wavelength ultraviolet/visible spectrophotometric detector, fluorescence detector, and Chemstation operating system.
Initial inhibition studies screened 13 aminooxy compounds against M. tuberculosis BCAT using 2.0 mM Leu/1.0 mM KMTB/0.1 or 1.0 mM inhibitor in the enzyme incubation. […] These reactions involved 0.5, 1.0, 2.0, or 3.0 mM Leu and 1.0 mM KMTB in the reaction mixture together with 0, 25, 50, 75, 100, 150, 200 μM of inhibitor. The Ki values were determined by non-linear curve fitting with the Scientist software programmed with competitive, uncompetitive, and mixed inhibition equations [25].

M. marinum = assay: In vitro growth inhibition, microtitre doubling dilution, A650 nm; format: cell-based, M. marinum Aronson (ATCC927)
M. tuberculosis [3] = settings: older study, other medium, cited from earlier work
[4] = varying substrate, 10 mM cosubstrate KG, Glu formation
[5] = varying substrate, 10 mM cosubstrate KMTB, Met formation
[6] = 0.5-3.0 mM Leu, 1.0 mM KMTB, 0-200 μM inhibitor
[7] = M. tuberculosis, n = 6, 14 days at 37°C, Middlebrook 7H9
[8] = M. tuberculosis, n = 6, 14 days at 37°C, Middlebrook 7H9, read-out: IC50
[9] = read-out: Kic (competitive component of mixed-type inhibition), 0.5-3.0 mM Leu, 1.0 mM KMTB, 0-200 μM inhibitor
[10] = M. marinum, n = 8, 8 days at 30°C, Middlebrook 7H9
[11] = M. marinum, n = 8, 8 days at 30°C, Middlebrook 7H9, read-out: IC50
[12] = varying keto acid substrate, 10 mM cosubstrate Leu
[13] = Mycobacterium tuberculosis, 336 h

## CC[C@H](C)[C@H](N)C(=O)O [Ile, Isoleucine]
[1]
  amino donor activity for Met formation from KMTB: most effective substrates
[1]; [4]
  Apparent Vmax: 14.35 ± 1.08 μmol/min/mg protein
  Km: 6160 ± 1140 µM
[1]; [5]
  Apparent Vmax: 4.28 ± 0.32 μmol/min/mg protein
  Km: 2850 ± 560 µM

## N[C@@H](Cc1ccc(O)cc1)C(=O)O [Tyrosine]
[1]
  amino donor activity for Met formation from KMTB: much lesser ability to transaminate KMTB

## N[C@@H](CCC(=O)O)C(=O)O [Glu, glutamate]
[1]
  amino donor activity for Met formation from KMTB: also active as amino donors
[1]; [5]
  Apparent Vmax: 5.70 ± 1.20 μmol/min/mg protein
  Km: 9530 ± 3430 µM

## CC(C)C[C@H](N)C(=O)O [Leu, leucine]
[1]
  amino donor activity for Met formation from KMTB: most effective substrates
[1]; [4]
  Apparent Vmax: 13.44 ± 0.84 μmol/min/mg protein
  Km: 6020 ± 940 µM
[1]; [5]
  Apparent Vmax: 3.65 ± 0.43 μmol/min/mg protein
  Km: 2500 ± 900 µM

## NOCC(=O)O [carboxymethoxylamine]
M. tuberculosis [2]; Mycobacterium tuberculosis, 336 h, M. tuberculosis, n = 6, 14 days at 37°C, Middlebrook 7H9, read-out: IC50
  IC50: 71 ± 7.83 µM
M. tuberculosis [2]; Mycobacterium tuberculosis, 336 h, M. tuberculosis, n = 6, 14 days at 37°C, Middlebrook 7H9, read-out: MIC
  MIC: 313 µM
M. tuberculosis [2]; Mycobacterium tuberculosis, M. tuberculosis, as stated in text (present data), read-out: MIC
  MIC: 313 µM
M. tuberculosis BCAT
  Ki: 21 ± 7.27 µM
  type of inhibition: mixed-type inhibition
M. tuberculosis BCAT; 1.0 mM KMTB
  inhibition of Met formation, ranking at 0.1 mM: most active
M. tuberculosis BCAT; [6]
  Kiu (uncompetitive component of mixed-type inhibition): 142.42 ± 69.76 µM
M. marinum; Mycobacterium marinum, 192 h, M. marinum, n = 8, 8 days at 30°C, Middlebrook 7H9, read-out: IC50
  IC50: 89.3 ± 7.65 µM
M. marinum; Mycobacterium marinum, 192 h, M. marinum, n = 8, 8 days at 30°C, Middlebrook 7H9, read-out: MIC
  MIC: 313 µM
M. tuberculosis [3]; ref 35
  MIC: 910 µM (≈ 82.9 µg/mL)
M. tuberculosis [3]; ref 37
  MIC: 170 µM (≈ 15.5 µg/mL)

## [H]/N=C(/N)N[C@H]1[C@H](O)[C@@H](O)[C@H](O[C@@H]2O[C@@H](C)[C@](O)(C=O)[C@H]2O[C@@H]2O[C@@H](CO)[C@H](O)[C@@H](O)[C@@H]2NC)[C@@H](N/C(N)=N\[H])[C@@H]1O [streptomycin]
M. tuberculosis [2]; Mycobacterium tuberculosis, M. tuberculosis, read-out: MIC
  MIC: 2 µg/mL
M. marinum; Mycobacterium marinum, M. marinum, read-out: MIC
  MIC: 8 µg/mL

## N[C@@H](Cc1ccccc1)C(=O)O [Phe, phenylalanine]
[1]
  amino donor activity for Met formation from KMTB: also active as amino donors
[1]; [5]
  Apparent Vmax: 2.17 ± 0.22 μmol/min/mg protein
  Km: 7440 ± 1400 µM

## CC(C)[C@H](N)C(=O)O [Val, valine]
[1]
  amino donor activity for Met formation from KMTB: most effective substrates
[1]; [4]
  Apparent Vmax: 11.82 ± 0.80 μmol/min/mg protein
  Km: 5790 ± 990 µM
[1]; [5]
  Apparent Vmax: 2.58 ± 0.41 μmol/min/mg protein
  Km: 1770 ± 860 µM

## N[C@@H](Cc1c[nH]c2ccccc12)C(=O)O [tryptophan]
[1]
  amino donor activity for Met formation from KMTB: much lesser ability to transaminate KMTB

## NOCc1ccccc1 [O-benzylhydroxylamine]
M. tuberculosis [2]; [7]
  MIC: 1250 µM
M. tuberculosis [2]; [8]
  IC50: 468 ± 62.8 µM
M. tuberculosis BCAT; 1.0 mM KMTB
  inhibition of Met formation, ranking at 0.1 mM: most active
M. tuberculosis BCAT; [6]
  Kiu (uncompetitive component of mixed-type inhibition): 84.08 ± 31.91 µM
M. tuberculosis BCAT
  type of inhibition: mixed-type inhibition
M. tuberculosis BCAT; [9]
  Ki: 8.2 ± 2.56 µM
M. marinum; [10]
  MIC: 1250 µM
M. marinum; [11]
  IC50: 411 ± 67.1 µM

## C[Si](C)(C)ON [O-trimethylsilylhydroxylamine]
M. tuberculosis BCAT; 1.0 mM KMTB
  inhibition of Met formation: With the exception of O-trimethylsilylhydroxylamine, all of the compounds inhibited Met formation to some extent

## CSCCC(=O)C(=O)O [KMTB, ketomethiobutyrate]
[1]; [12]
  Apparent Vmax: 4.22 ± 0.72 μmol/min/mg protein
  Km: 4200 ± 1790 µM

## NOCC[C@H](N)C(=O)O [canaline]
M. tuberculosis [2]; [13]
  IC50: 273 ± 14.6 µM
  MIC: 1250 µM
M. tuberculosis BCAT; 1.0 mM KMTB
  inhibition of Met formation: not a particularly good inhibitor
M. marinum; Mycobacterium marinum, 192 h
  IC50: 335 ± 13.6 µM
  MIC: 1250 µM

## CC(C)(C)ON [O-(t-butyl)hydroxylamine]
M. tuberculosis [2]; [7]
  MIC: 10000 µM
M. tuberculosis [2]; [8]
  IC50: 131 ± 23.1 µM
M. tuberculosis BCAT; 1.0 mM KMTB
  inhibition of Met formation, ranking at 0.1 mM: most active
M. tuberculosis BCAT; [6]
  Kiu (uncompetitive component of mixed-type inhibition): 85.60 ± 44.79 µM
M. tuberculosis BCAT
  type of inhibition: mixed-type inhibition
M. tuberculosis BCAT; [9]
  Ki: 11 ± 2.76 µM
M. marinum; [10]
  MIC: 10000 µM
M. marinum; [11]
  IC50: 43.2 ± 10.5 µM

## O=C(O)CCC(=O)C(=O)O [KG, ketoglutarate]
[1]; [12]
  Apparent Vmax: 12.80 ± 1.12 μmol/min/mg protein
  Km: 6950 ± 1440 µM

## C=CCON [O-allylhydroxylamine]
M. tuberculosis [2]; M. tuberculosis, as stated in text (present data), read-out: MIC
  MIC: 156 µM
M. tuberculosis [2]; [7]
  MIC: 156 µM
M. tuberculosis [2]; [8]
  IC50: 39.2 ± 2.01 µM
M. tuberculosis BCAT; 1.0 mM KMTB
  inhibition of Met formation, ranking at 0.1 mM: most active
M. tuberculosis BCAT; [6]
  Kiu (uncompetitive component of mixed-type inhibition): > 200 µM
M. tuberculosis BCAT
  type of inhibition: mixed-type inhibition
M. tuberculosis BCAT; [9]
  Ki: 21.6 ± 11.1 µM
M. marinum; [10]
  MIC: 78 µM
M. marinum; [11]
  IC50: 8.49 ± 1.96 µM
M. marinum; M. marinum, read-out: MIC
  MIC: 78 µM
